Test results taken from ChEMBL document CHEMBL6153072, “Metabolically Stable Adenylation Inhibitors of Biotin Protein Ligase as Antibacterial Agents” (J Med Chem, 2025).

Key:
[1] = molecular target: T1, Biotin--[acetyl-CoA-carboxylase] ligase (Mycobacterium tuberculosis (strain ATCC 25618 / H37Rv), UniProt I6YFP0); experiment: Binding affinity to Mycobacterium tuberculosis BPL assessed as dissociation constant by isothermal titration calorimetry
T1 sequence (I6YFP0 whole entry): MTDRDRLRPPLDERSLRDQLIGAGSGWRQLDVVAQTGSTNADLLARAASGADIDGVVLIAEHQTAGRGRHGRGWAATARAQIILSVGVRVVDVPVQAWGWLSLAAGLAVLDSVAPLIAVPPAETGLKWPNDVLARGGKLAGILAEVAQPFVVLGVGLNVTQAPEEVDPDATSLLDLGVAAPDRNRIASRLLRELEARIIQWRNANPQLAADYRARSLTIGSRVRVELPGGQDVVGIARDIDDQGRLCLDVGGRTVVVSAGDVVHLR

[2] = molecular target: T2, Biotin--[acetyl-CoA-carboxylase] ligase (Mycobacterium tuberculosis (strain ATCC 25618 / H37Rv)) (UniProt I6YFP0); experiment: Binding affinity to Mycobacterium tuberculosis BPL assessed as change in gibbs free energy by isothermal titration calorimetry
T2 sequence (whole entry): T1 sequence (I6YFP0 whole entry)

[3] = molecular target: T2, Biotin--[acetyl-CoA-carboxylase] ligase (Mycobacterium tuberculosis (strain ATCC 25618 / H37Rv)); experiment: Binding affinity to Mycobacterium tuberculosis BPL assessed as change in enthalpy by isothermal titration calorimetry
[4] = molecular target: T2, Biotin--[acetyl-CoA-carboxylase] ligase (Mycobacterium tuberculosis (strain ATCC 25618 / H37Rv)); experiment: Binding affinity to Mycobacterium tuberculosis BPL assessed as change in entropy by isothermal titration calorimetry
[5] = test system: Mycobacterium tuberculosis; experiment: Antimicrobial activity against wild type Mycobacterium tuberculosis H37Rv assessed as inhibition of microbial growth incubated for 14 days in biotin-deficient GAST medium by broth microdilution assay; type: functional; conditions: 336 h, time 14 day
[6] = test system: Staphylococcus aureus; experiment: Antimicrobial activity against methicillin-sensitive Staphylococcus aureus […] assessed as inhibition of microbial growth incubated for 14 days in biotin-deficient GAST medium by broth microdilution assay; type: functional; conditions: 336 h, time 14 day
[7] = test system: Staphylococcus aureus; experiment: Antimicrobial activity against methicillin-resistant Staphylococcus aureus FPR3757 assessed as inhibition of microbial growth incubated for 14 days in biotin-deficient GAST medium by broth microdilution assay; type: functional; conditions: FPR3757, 336 h, time 14 day
[8] = AUC (0 to 24 hrs) in female CD-1 mouse at 5 mg/kg, iv administered […] measured after 24 hrs by LC-MS/MS analysis; type: ADME, organism-based; conditions: in vivo
[9] = Drug metabolism in female CD-1 mouse assessed as AUC (0 to 24 hrs) of adenosine-5-sulfamide metabolite at 5 mg/kg, iv administered […] measured after 24 hrs by LC-MS/MS analysis; type: ADME, organism-based; conditions: in vivo
[10] = Volume of distribution in female CD-1 mouse at 5 mg/kg, iv administered […] measured after 24 hrs by LC-MS/MS analysis; type: ADME, organism-based; conditions: in vivo
[11] = Clearance in female CD-1 mouse at 5 mg/kg, iv administered […] measured after 24 hrs by LC-MS/MS analysis; type: ADME, organism-based; conditions: in vivo
[12] = Half life in female CD-1 mouse at 5 mg/kg, iv administered […] measured after 24 hrs by LC-MS/MS analysis; type: ADME, organism-based; conditions: in vivo
[13] = Hepatic clearance in female CD-1 mouse at 5 mg/kg, iv administered […] measured after 24 hrs by LC-MS/MS analysis; type: ADME, organism-based; conditions: in vivo
[14] = Renal clearance in female CD-1 mouse at 5 mg/kg, iv administered […] measured after 24 hrs by LC-MS/MS analysis; type: ADME, organism-based; conditions: in vivo
[15] = Cytotoxicity against African green monkey Vero cells; type: toxicity, cell-based, Chlorocebus sabaeus
[16] = AUC (0 to 24 hrs) in female CD-1 mouse at 10 mg/kg, iv administered […] measured after 24 hrs by LC-MS/MS analysis; type: ADME, organism-based; conditions: in vivo
[17] = Volume of distribution in female CD-1 mouse at 10 mg/kg, iv administered […] measured after 24 hrs by LC-MS/MS analysis; type: ADME, organism-based; conditions: in vivo
[18] = Clearance in female CD-1 mouse at 10 mg/kg, iv administered […] measured after 24 hrs by LC-MS/MS analysis; type: ADME, organism-based; conditions: in vivo
[19] = Half life in female CD-1 mouse at 10 mg/kg, iv administered via gavage measured after 24 hrs by LC-MS/MS analysis; conditions: in vivo
[20] = test system: HepG2; experiment: Cytotoxicity against human HepG2 cells assessed as inhibition of cell viability preincubated for 24 hrs and measured after 4 hrs by XTT assay; type: functional, cell-based

SMILES	Kd [1] [nM]	deltaG [2] [kcal/mol]	deltaH [3] [kcal/mol]	TdeltaS [4] [kcal/mol]	MIC50 [5] [µM]	MIC50 [6] [µM]	MIC50 [7] [µM]	AUC(0-t) at 24 h [8] [ng·h/mL]	AUC [9] [ng·h/mL]	Vd [10] [L/kg]	clearance [11] [mL/min/kg]	half-life [12] [min]	CLH [13] [mL/min/kg]	CL renal at 24 h [14] [mL/min/kg]	IC50 [15] [nM]	AUC(0-t) at 24 h [16] [ng·h/mL]	Vd [17] [L/kg]	clearance [18] [mL/min/kg]	half-life at 24 h [19] [min]	IC50 [20] [nM]
Nc1ncnc2c1ncn2[C@@H]1O[C@H](CNS(=O)(=O)NCCCCC[C@@H]2SC[C@@H]3NC(=O)N[C@@H]32)[C@@H](O)[C@H]1O	23	-10.4	-23.2	12.8	> 100	28.7	14.4													
Nc1ncnc2c1ncn2[C@@H]1O[C@H](CNS(=O)(=O)[N-]C(=O)CCCC[C@@H]2SC[C@@H]3NC(=O)N[C@@H]32)[C@@H](O)[C@H]1O.[Na+]		-12.4	-18.9	6.6	2.2	0.21	0.02	1450	782	0.94	58	11	22.5	22.5						
Nc1cccc2c1ncn2[C@@H]1O[C@H](CNS(=O)(=O)NC(=O)CCCC[C@@H]2SC[C@@H]3NC(=O)N[C@@H]32)[C@@H](O)[C@H]1O	220	-9.4	-13.9	4.5	> 100	> 30	> 30													
Nc1ncnc2c1ncn2[C@@H]1O[C@H](CNS(N)(=O)=O)[C@@H](O)[C@H]1O															6000					
Nc1ncnc2c1ncn2[C@@H]1O[C@H](Cn2cc(C(=O)CCCC[C@@H]3SC[C@@H]4NC(=O)N[C@@H]43)nn2)[C@@H](O)[C@H]1O					> 100	29.4	29.4													
Nc1cccc2c1ncn2CCCCNS(=O)(=O)NC(=O)CCCC[C@@H]1SC[C@@H]2NC(=O)N[C@@H]21	220	-9.1	-12.3	3.2	21	> 30	> 30													
C[C@@H]1NC(=O)N[C@@H]1CCCCCC(=O)NS(=O)(=O)NC[C@H]1O[C@@H](n2cnc3c(N)cccc32)[C@H](O)[C@@H]1O	19	-10.6	-13.6	3	> 100	> 30	> 30													
CN(C(=O)CCCC[C@@H]1SC[C@@H]2NC(=O)N[C@@H]21)S(=O)(=O)NC[C@H]1O[C@@H](n2cnc3c(N)ncnc32)[C@H](O)[C@@H]1O	120	-9.7	-9.6	0.14	> 100	> 30	> 30													
Nc1ncnc2c1ncn2[C@@H]1O[C@H](CNS(=O)(=O)NC(=O)NCCCC[C@@H]2SC[C@@H]3NC(=O)N[C@@H]32)[C@@H](O)[C@H]1O	55	-9.9	-11.5	1.6	> 100	0.25	0.12													
CC(=O)NC[C@H]1CN(c2ccc(N3CCOCC3)c(F)c2)C(=O)O1 [LINEZOLID]																11000	0.63	16.3	33	
CC(CCC[C@@H]1SC[C@@H]2NC(=O)N[C@@H]21)C(=O)[N-]S(=O)(=O)NC[C@H]1O[C@@H](n2cnc3c(N)ncnc32)[C@H](O)[C@@H]1O.[Na+] (stereo partly drawn)	22	-10.4	-11.9	1.5	50	0.41	0.2	8640	29	0.54	10	39								
Nc1cccc2c1ncn2[C@@H]1O[C@H](CNS(=O)(=O)NC(=O)CCCC[C@@H]2SC[C@@H]3NC(=O)N[C@@H]32)[C@@H](F)[C@H]1O	228	-9.1	-13.9	4.8	> 100	> 30	> 30													
Nc1ncnc2c1ncn2[C@@H]1O[C@H](CNS(=O)(=O)NC(=S)NCCCC[C@@H]2SC[C@@H]3NC(=O)N[C@@H]32)[C@@H](O)[C@H]1O	60	-9.9	-14.2	4.3	> 100	28.7	7.2													
Nc1ncnc2c1ncn2[C@@H]1O[C@H](CNS(=O)(=O)[N-]C(=O)NCCC[C@@H]2SC[C@@H]3NC(=O)N[C@@H]32)[C@@H](O)[C@H]1O.[Na+]				0.5	20	0.2	0.2	11200	32	0.45	7	42								> 100000
Nc1ncnc2c1ncn2[C@@H]1O[C@H](CNS(=O)(=O)NC(=O)NCCCCC[C@@H]2SC[C@@H]3NC(=O)N[C@@H]32)[C@@H](O)[C@H]1O	110	-9.4	-9.9	0.48	> 100	25.7	12.8													
Nc1ncnc2c1ncn2[C@@H]1O[C@H](Cn2cc(CCCCC[C@@H]3SC[C@@H]4NC(=O)N[C@@H]43)nn2)[C@@H](O)[C@H]1O	62	-9.9	-14.2	4.3	> 100	30	15													
